# Data reported in US20050244486A1, “Topical methadone compositions and methods for using the same” (priority 2004, published 2005).
# Several values for one entry are separate records, joined by “and”; a condition that tells them apart may be missing. Identical values can stand only once. Like-named read-outs stand apart in the source and are kept apart here.
# Assays:
# [1] = Study 2: concentrations of methadone in rat plasma, topical administration versus intravenous injection; type: in vivo
# Experimental: The test article was administered intravenously (IV) through the tail vein to animals in Group A. The injection was performed slowly. A gauze pad (1×1 cm) Saturated with 0.2 mL of the appropriate test article was applied to the clipped site on the back of the animals in Groups 2 and 3. The gauze pad was secured by occlusive tape. The animal was wrapped in gauze, which was held in place with Zonas porous tape.
# Blood Collection: Blood (0.5 mL) was collected into sodium heparin tubes at the appropriate time points. The samples were centrifuged at approximately 2800 rpm at 2-8 degrees Celsius for approximately 15 minutes. Plasma was collected.
# [2] = Solubility of methadone in different solvents; type: physicochemical
# Experimental: In this experiment, the solubility of methadone in a number of different solvents was evaluated. The solvents evaluated were mineral oil, N-methyl-2-pyrrolidone, diisopropyl adipate, DEET, PEG, Di (propylene glycol), dehydrated alcohol and water. […] The stability of the solutions was also evaluated.
# [3] = Pharmacokinetic study B: methadone patch, human plasma; type: in vivo; conditions: topical, Study B: 5 × 5 cm SIS patch (Methadone 10 weight %), 25 mg Methadone free base, applied 12 hours, left leg inner side above knee, 55 kg person, read-out: Concentrations of Methadone in Human Plasma Samples
compound,measurement,setting,value
"CCC(=O)C(CC(C)N(C)C)(c1ccccc1)c1ccccc1 (stereo not drawn) [Methadone, 6-dimethylamino-4,4-diphenyl-3-hepatone]",Concentrations of Methadone in Rat Plasma Samples,"[1]; Study 2 Group C: topical dorsal flank, 1 × 1 cm gauze pad with 0.2 mL Test Article 3 (Methadone-DEET Solution 10%), 480 min, individual rats C1-C3",18.0 ng/mL and 29.6 ng/mL and 14.3 ng/mL
same,Concentrations of Methadone in Rat Plasma Samples,"[1]; Study 2 Group C: topical dorsal flank, 1 × 1 cm gauze pad with 0.2 mL Test Article 3 (Methadone-DEET Solution 10%), 1440 min, individual rats C1-C3",20.0 ng/mL and 20.6 ng/mL
same,Concentrations of Methadone in Rat Plasma Samples,"[1]; Study 2 Group C: topical dorsal flank, 1 × 1 cm gauze pad with 0.2 mL Test Article 3 (Methadone-DEET Solution 10%), 2160 min, individual rats C1-C3",17.3 ng/mL and 35.1 ng/mL and 19.0 ng/mL
same,Concentrations of Methadone in Rat Plasma Samples,"[1]; Study 2 Group C: topical dorsal flank, 1 × 1 cm gauze pad with 0.2 mL Test Article 3 (Methadone-DEET Solution 10%), 2880 min, individual rats C1-C3",11.1 ng/mL and 23.7 ng/mL and 12.6 ng/mL
same,concentration at 45 min,"[1]; rat, in vivo, 0.2 mL of 10% methadone solution, Study 2 Group C: topical dorsal flank, 1 × 1 cm gauze pad with 0.2 mL Test Article 3 (Methadone-DEET Solution 10%), 45 min, individual rats C1-C3, read-out: Concentrations of Methadone in Rat Plasma Samples",2.08 ng/mL
same,concentration at 90 min,"[1]; rat, in vivo, 0.2 mL of 10% methadone solution, Study 2 Group C: topical dorsal flank, 1 × 1 cm gauze pad with 0.2 mL Test Article 3 (Methadone-DEET Solution 10%), individual rats C1-C3, read-out: Concentrations of Methadone in Rat Plasma Samples",3.17 ng/mL
same,concentration at 1440 min,"[1]; rat, in vivo, 0.2 mL of 10% methadone solution, Study 2 Group C: topical dorsal flank, 1 × 1 cm gauze pad with 0.2 mL Test Article 3 (Methadone-DEET Solution 10%), 1440 min, individual rats C1-C3, read-out: Concentrations of Methadone in Rat Plasma Samples",27.8 ng/mL
same,concentration at 15 min,"[1]; rat, in vivo, 0.2 mL of 23.9% methadone solution, Study 2 Group B: topical dorsal flank, 1 × 1 cm gauze pad with 0.2 mL Test Article 2 (Methadone-Diisopropyl Adipate Solution 23.9%), 15 min, individual rats B1-B3, read-out: Concentrations of Methadone in Rat Plasma Samples",2.75 ng/mL
same,concentration at 90 min,"[1]; rat, in vivo, 0.2 mL of 23.9% methadone solution, Study 2 Group B: topical dorsal flank, 1 × 1 cm gauze pad with 0.2 mL Test Article 2 (Methadone-Diisopropyl Adipate Solution 23.9%), individual rats B1-B3, read-out: Concentrations of Methadone in Rat Plasma Samples",24.8 ng/mL
same,concentration at 1440 min,"[1]; rat, in vivo, 0.2 mL of 23.9% methadone solution, Study 2 Group B: topical dorsal flank, 1 × 1 cm gauze pad with 0.2 mL Test Article 2 (Methadone-Diisopropyl Adipate Solution 23.9%), 1440 min, individual rats B1-B3, read-out: Concentrations of Methadone in Rat Plasma Samples",116 ng/mL
same,concentration at 2 min,"[1]; rat, in vivo, iv, 0.125 mg, Study 2 Group A: I.V. tail vein, 0.25 mL Test Article 1 (0.5 mg/mL Methadone-Saline Solution), 2 min, individual rats A1-A3, read-out: Concentrations of Methadone in Rat Plasma Samples",36.3 ng/mL
same,concentration at 20 min,"[1]; rat, in vivo, iv, 0.125 mg, Study 2 Group A: I.V. tail vein, 0.25 mL Test Article 1 (0.5 mg/mL Methadone-Saline Solution), 20 min, individual rats A1-A3, read-out: Concentrations of Methadone in Rat Plasma Samples",55.9 ng/mL
same,concentration at 40 min,"[1]; rat, in vivo, iv, 0.125 mg, Study 2 Group A: I.V. tail vein, 0.25 mL Test Article 1 (0.5 mg/mL Methadone-Saline Solution), 40 min, individual rats A1-A3, read-out: Concentrations of Methadone in Rat Plasma Samples",35.4 ng/mL
same,concentration at 60 min,"[1]; rat, in vivo, iv, 0.125 mg, Study 2 Group A: I.V. tail vein, 0.25 mL Test Article 1 (0.5 mg/mL Methadone-Saline Solution), 60 min, individual rats A1-A3, read-out: Concentrations of Methadone in Rat Plasma Samples",28.1 ng/mL
same,concentration at 480 min,"[1]; rat, in vivo, iv, 0.125 mg, Study 2 Group A: I.V. tail vein, 0.25 mL Test Article 1 (0.5 mg/mL Methadone-Saline Solution), 480 min, individual rats A1-A3, read-out: Concentrations of Methadone in Rat Plasma Samples",1.54 ng/mL
same,concentration at 2160 min,"[1]; rat, in vivo, iv, 0.125 mg, Study 2 Group A: I.V. tail vein, 0.25 mL Test Article 1 (0.5 mg/mL Methadone-Saline Solution), 2160 min, individual rats A1-A3, read-out: Concentrations of Methadone in Rat Plasma Samples",0.796 ng/mL
same,solubility at 3 h,"[2]; oil or lipid, Mineral oil, 3 hour",39.9 mg/mL
same,solubility at 6 h,"[2]; oil or lipid, Mineral oil, 6 hour",37.2 mg/mL
same,solubility at 24 h,"[2]; oil or lipid, Mineral oil, 24 hour",40.4 mg/mL
same,solubility at 48 h,"[2]; oil or lipid, Mineral oil, 48 hour",40.4 mg/mL
same,solubility at 3 h,"[2]; organic solvent or mixture, thermodynamic from solid, diisopropyl adipate, 3 hour",343 mg/mL
same,solubility at 6 h,"[2]; organic solvent or mixture, thermodynamic from solid, diisopropyl adipate, 6 hour",345 mg/mL
same,solubility at 48 h,"[2]; organic solvent or mixture, thermodynamic from solid, diisopropyl adipate, 48 hour",324 mg/mL
same,solubility at 3 h,"[2]; organic solvent or mixture, DEET (97%), 3 hour",124 mg/mL
same,solubility at 6 h,"[2]; organic solvent or mixture, DEET (97%), 6 hour",125 mg/mL
same,solubility at 24 h,"[2]; organic solvent or mixture, DEET (97%), 24 hour",137 mg/mL
same,solubility at 48 h,"[2]; organic solvent or mixture, DEET (97%), 48 hour",132 mg/mL
same,solubility at 3 h,"[2]; organic solvent or mixture, Dehydrated Alcohol, 3 hour",114 mg/mL
same,solubility at 6 h,"[2]; organic solvent or mixture, Dehydrated Alcohol, 6 hour",113 mg/mL
same,solubility at 24 h,"[2]; organic solvent or mixture, Dehydrated Alcohol, 24 hour",115 mg/mL
same,solubility at 48 h,"[2]; organic solvent or mixture, Dehydrated Alcohol, 48 hour",118 mg/mL
same,solubility at 3 h,"[2]; organic solvent or mixture, Di(propylene glycol), 3 hour",56.2 mg/mL
same,solubility at 6 h,"[2]; organic solvent or mixture, Di(propylene glycol), 6 hour",56.5 mg/mL
same,solubility at 24 h,"[2]; organic solvent or mixture, Di(propylene glycol), 24 hour",54.9 mg/mL
same,solubility at 48 h,"[2]; organic solvent or mixture, Di(propylene glycol), 48 hour",58.7 mg/mL
same,solubility at 3 h,"[2]; organic solvent or mixture, N-methyl-2-pyrrolidone, 3 hour",262 mg/mL
same,solubility at 6 h,"[2]; organic solvent or mixture, N-methyl-2-pyrrolidone, 6 hour",270 mg/mL
same,solubility at 24 h,"[2]; organic solvent or mixture, N-methyl-2-pyrrolidone, 24 hour",347 mg/mL
same,solubility at 48 h,"[2]; organic solvent or mixture, N-methyl-2-pyrrolidone, 48 hour",342 mg/mL
same,solubility at 3 h,"[2]; organic solvent or mixture, PEG - 400, 3 hour",39.7 mg/mL
same,solubility at 6 h,"[2]; organic solvent or mixture, PEG - 400, 6 hour",39.9 mg/mL
same,solubility at 24 h,"[2]; organic solvent or mixture, PEG - 400, 24 hour",38.8 mg/mL
same,solubility at 48 h,"[2]; organic solvent or mixture, PEG - 400, 48 hour",36.8 mg/mL
same,solubility at 24 h,"[2]; organic solvent or mixture, diisopropyl adipate, 24 hour",360 mg/mL
same,solubility at 3 h,"[2]; thermodynamic from solid, water, 3 hour",0.217 mg/mL
same,solubility at 6 h,"[2]; thermodynamic from solid, water, 6 hour",0.228 mg/mL
same,solubility at 24 h,"[2]; thermodynamic from solid, water, 24 hour",0.224 mg/mL
same,solubility at 48 h,"[2]; thermodynamic from solid, water, 48 hour",0.225 mg/mL
same,concentration at 12 h,[3]; 12 hr,5.36 ng/mL
same,concentration at 18 h,[3]; 18 hr,4.95 ng/mL
same,concentration at 139.5 h,[3]; 139.5 hr,2.24 ng/mL
